The source of these data is PubChem BioAssay (NCI).

Test systems include TK-10 renal; NCI/ADR-RES ovarian; BT-549 breast; SK-MEL-5 melanoma; SNB-19 CNS; 786-0 renal; HS 578T breast; CCRF-CEM leukemia; SNB-75 CNS; RXF 393 renal.
Holding throughout (test): NCI-60 cell line screen, 48 h

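Assay format: 96-well plates, 48-hour exposure. GI50 marks 50% less growth. TGI: total growth inhibition.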 *1 amine or outer side, *2 acyl side, *3 side chain or, on linkers, in order; H or OH if unused. Where a SMILES comes first, the peptide text is derived from it. Bridges are numbered along the chain shown (N, C = ends). Roman numbers before positions name the chains, in order. [ ]: non-standard residue; d: D form. Actinocin(9to1) = Cc1c2oc3c(C)ccc(C(=O)[*:1])c3nc-2c(C(=O)[*:2])c(N)c1=O; NMeH = CN[CH](Cc1c[nH]cn1)C(=O)O; Sar = CNCC(=O)O

As to `C#C[C@]1(O)CC[C@H]2[C@@H]3CCC4=C/C(=N/NC(=O)c5cccc6c(=O)c7ccccc7[nH]c56)CCC4[C@H]3CC[C@@]21C` (stereo not given in full), the TGI was more than 100 µM in the experiment on TK-10 renal; more than 100 µM in the experiment with NCI/ADR-RES ovarian; 63.3 µM in the experiment with BT-549 breast; 64.8 µM in the experiment on SK-MEL-5 melanoma; more than 100 µM with SNB-19 CNS; more than 100 µM with 786-0 renal. Moreover, the TGI in the experiment on HS 578T breast, with CCRF-CEM leukemia and with SNB-75 CNS was more than 100 µM each time.
On to `CN1/C(=C/C=C/C=C/C=C2C(=O)c3ccccc3C2=O)C(C)(C)c2ccccc21`, for which the TGI with TK-10 renal was more than 100 µM; with NCI/ADR-RES ovarian, more than 100 µM; in the experiment on BT-549 breast, 81 µM; with SK-MEL-5 melanoma it was 36.1 µM; in the experiment on SNB-19 CNS it was more than 100 µM; in the experiment on 786-0 renal, more than 100 µM. The TGI in the experiment on HS 578T breast is more than 100 µM; in the experiment on CCRF-CEM leukemia, more than 100 µM; with SNB-75 CNS, more than 100 µM; in the experiment with RXF 393 renal, 81.4 µM.
Turning to `N#Cc1nc2cc(Cl)ccc2nc1N1CCN(c2ccc([N+](=O)[O-])cc2)CC1`, the TGI with TK-10 renal, in the experiment with NCI/ADR-RES ovarian, with BT-549 breast, with SK-MEL-5 melanoma, in the experiment on SNB-19 CNS and in the experiment with 786-0 renal was more than 100 µM throughout. Moreover, the TGI in the experiment with HS 578T breast, with SNB-75 CNS and in the experiment on RXF 393 renal was more than 100 µM each time.
For `Cc1c2oc3c(C)ccc(C(=O)NC4C(=O)NC(C(C)C)C(=O)N5CCCC5C(=O)N(C)CC(=O)N(C)C(Cc5cnc[nH]5)C(=O)OC4C)c3nc-2c(C(=O)NC2C(=O)NC(C(C)C)C(=O)N3CCCC3C(=O)N(C)CC(=O)N(C)C(Cc3cnc[nH]3)C(=O)OC2C)c(N)c1=O` (stereo not given) (I: TVP[Sar][NMeH] / II: TVP[Sar][NMeH]; ester I:1-I:C, II:1-II:C; linker I:N-II:N via Actinocin(9to1); configuration not given here), the TGI in the experiment on TK-10 renal was more than 100 µM; in the experiment with NCI/ADR-RES ovarian, more than 100 µM; in the experiment on BT-549 breast, more than 100 µM; with SK-MEL-5 melanoma it was 55.9 µM; with SNB-19 CNS it was more than 100 µM; with 786-0 renal, more than 100 µM. In addition, the TGI in the experiment on HS 578T breast is more than 100 µM; in the experiment with CCRF-CEM leukemia, more than 100 µM; in the experiment on SNB-75 CNS it was more than 100 µM; in the experiment on RXF 393 renal it was 51.9 µM.
For `COc1cc2ccc(C(=O)NCCCNC(=O)c3ccc4cc(OC)c(OC)cc4c3)cc2cc1OC`, the TGI in the experiment with TK-10 renal, in the experiment on NCI/ADR-RES ovarian, in the experiment on BT-549 breast, in the experiment on SK-MEL-5 melanoma, in the experiment on SNB-19 CNS and in the experiment on 786-0 renal was more than 100 µM in each case. The TGI is more than 100 µM in the experiment on HS 578T breast, more than 100 µM in the experiment with CCRF-CEM leukemia and 95.8 µM in the experiment with SNB-75 CNS.
With `CC(=O)n1cc(C2CC23N=C(c2ccccc2)OC3=O)c2ccccc21` (stereo not given), the TGI in the experiment with TK-10 renal is 53.8 µM; in the experiment on NCI/ADR-RES ovarian it was more than 56 µM; in the experiment on BT-549 breast it was 30.3 µM; in the experiment with SK-MEL-5 melanoma, 40.2 µM; with SNB-19 CNS it was more than 89.7 µM; in the experiment with 786-0 renal it was 33.5 µM. For the same compound, the TGI in the experiment with HS 578T breast turned out to be 68.6 µM; in the experiment with CCRF-CEM leukemia, 7.86 µM; in the experiment on SNB-75 CNS, 39.6 µM; with RXF 393 renal, 34.6 µM.
With `C[C@]12CC[C@H]3[C@@H](CCC4=CC(=O)C=C[C@@]43OC(=O)C(F)(F)F)[C@@H]1CCC2=O`, the TGI in the experiment with TK-10 renal was more than 100 µM; with NCI/ADR-RES ovarian it was more than 100 µM; in the experiment with BT-549 breast, more than 100 µM; in the experiment on SK-MEL-5 melanoma it was more than 100 µM; with SNB-19 CNS, more than 100 µM; with 786-0 renal, more than 83.5 µM. For the same compound, the TGI in the experiment on HS 578T breast, in the experiment with CCRF-CEM leukemia, with SNB-75 CNS and with RXF 393 renal was more than 100 µM throughout.
Regarding `COc1cc(/C=C2\CC/C(=C\c3cc(OC)c(O)c(OC)c3)C2=O)cc(OC)c1O`, the TGI was more than 100 µM in the experiment on TK-10 renal; 13.9 µM in the experiment with NCI/ADR-RES ovarian; 7.44 µM in the experiment on BT-549 breast; 5.57 µM in the experiment with SK-MEL-5 melanoma; more than 100 µM in the experiment with SNB-19 CNS; more than 100 µM with 786-0 renal. Besides, the TGI came to 15.8 µM with HS 578T breast, 23.1 µM in the experiment on CCRF-CEM leukemia, 8.06 µM in the experiment on SNB-75 CNS and 3.74 µM in the experiment with RXF 393 renal.
For the compound `CN(Cc1cnc2nc(N)nc(N)c2n1)c1ccc(C(=O)NC23CC4CC(CC(C4)C2)C3)cc1`, the TGI is 30.8 µM with TK-10 renal; more than 100 µM in the experiment on NCI/ADR-RES ovarian; 31.1 µM in the experiment on BT-549 breast; 17.7 µM in the experiment with SK-MEL-5 melanoma; 18.6 µM with SNB-19 CNS; 57.1 µM with 786-0 renal. The TGI in the experiment with HS 578T breast was found to be 31.9 µM; in the experiment on CCRF-CEM leukemia it was 52 µM; in the experiment on SNB-75 CNS, 38.9 µM; with RXF 393 renal it was 40.4 µM.
With `C[C@@H]1[C@@H](C)C(c2ccccc2)O[Si]1(C(C)(C)C)C(C)(C)C` (stereo not given in full), the TGI turned out to be 29.9 µM in the experiment on TK-10 renal; 33 µM with NCI/ADR-RES ovarian; 57.1 µM in the experiment on BT-549 breast; 31.5 µM in the experiment on SK-MEL-5 melanoma; 18.3 µM in the experiment on SNB-19 CNS; 29.4 µM in the experiment with 786-0 renal. The TGI in the experiment on HS 578T breast worked out at 42.6 µM; with CCRF-CEM leukemia, 46.2 µM; in the experiment on SNB-75 CNS, 29.9 µM; in the experiment on RXF 393 renal, 31 µM.
Take `NCCCN(CCCCN(CCCN)C(=O)OCc1ccccc1)C(=O)OCc1ccccc1`: the TGI with TK-10 renal, in the experiment on NCI/ADR-RES ovarian, in the experiment on BT-549 breast, in the experiment on SK-MEL-5 melanoma, with SNB-19 CNS and with 786-0 renal was more than 100 µM throughout. Further, the TGI in the experiment with HS 578T breast, in the experiment on CCRF-CEM leukemia, in the experiment with SNB-75 CNS and in the experiment with RXF 393 renal was more than 100 µM throughout.
Take `CN1CCN(Cc2c[nH]c3c2C(=O)c2c(c(O)c4ccccc4c2O)C3=O)CC1`: the GI50 with TK-10 renal was 1460 nM; in the experiment with NCI/ADR-RES ovarian it was 11.7 µM; in the experiment with BT-549 breast, 18.6 µM; in the experiment on SK-MEL-5 melanoma, 14 µM; in the experiment on SNB-19 CNS, 22.4 µM; with HS 578T breast, 17 µM. The results for the GI50 with CCRF-CEM leukemia, in the experiment on SNB-75 CNS and in the experiment with RXF 393 renal were 3.51 µM, 26.6 µM and 6.22 µM, respectively. Further, the TGI in the experiment with TK-10 renal stood at 14.9 µM; with NCI/ADR-RES ovarian, 25.5 µM; in the experiment on BT-549 breast it was 34.5 µM; in the experiment with SK-MEL-5 melanoma it was 26.9 µM; in the experiment on SNB-19 CNS it was 52 µM; with HS 578T breast, 32.8 µM. For the same compound, the TGI in the experiment with CCRF-CEM leukemia is 18.5 µM; in the experiment on SNB-75 CNS it was 55.7 µM; in the experiment on RXF 393 renal, 19 µM.
